The compounds below were run against T1, D-3-phosphoglycerate dehydrogenase (Homo sapiens, UniProt O43175) (assay: Inhibition of human PHGDH by fluorescence based analysis).
T1 sequence (O43175 whole entry): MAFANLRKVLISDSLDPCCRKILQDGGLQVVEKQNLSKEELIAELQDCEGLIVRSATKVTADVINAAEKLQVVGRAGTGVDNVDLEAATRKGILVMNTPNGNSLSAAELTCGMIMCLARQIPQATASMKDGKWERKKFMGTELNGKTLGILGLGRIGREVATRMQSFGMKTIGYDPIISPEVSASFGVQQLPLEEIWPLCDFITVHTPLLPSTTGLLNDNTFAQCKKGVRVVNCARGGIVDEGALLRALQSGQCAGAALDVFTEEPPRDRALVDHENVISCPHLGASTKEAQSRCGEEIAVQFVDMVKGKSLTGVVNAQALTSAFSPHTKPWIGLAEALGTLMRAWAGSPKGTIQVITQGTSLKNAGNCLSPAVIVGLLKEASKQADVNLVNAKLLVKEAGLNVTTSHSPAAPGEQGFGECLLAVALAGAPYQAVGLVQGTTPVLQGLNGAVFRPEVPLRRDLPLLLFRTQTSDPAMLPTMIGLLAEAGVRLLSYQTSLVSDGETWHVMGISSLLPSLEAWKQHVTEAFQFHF
Work on CN(C(=S)SSC(=S)N(C)c1ccccc1)c1ccccc1 yielded an IC50 of 0.42 µM.
In the case of CC1CCC(C)N1C(=S)SSC(=S)N1C(C)CCC1C (configuration not stated), the IC50 is reported as 0.42 µM.
Work on CN(C(=S)SSC(=S)N(C)C1CCCCC1)C1CCCCC1 yielded an IC50 of 1.01 µM.
For S=C(Nc1ccccc1)SSC(=S)Nc1ccccc1, the IC50 was 0.36 µM.
Work on S=C(SSC(=S)N1CCN(C2CCCCC2)CC1)N1CCN(C2CCCCC2)CC1 yielded an IC50 of 0.57 µM.
S=C(SSC(=S)N1CCSCC1)N1CCSCC1 showed an IC50 of 0.34 µM.
S=C(SSC(=S)N1CCc2ccccc2C1)N1CCc2ccccc2C1 was tested, and the IC50 was 0.38 µM.
For CCN(CC)C(=O)CSC(=S)N(CC)CC [(DIETHYLCARBAMOYL)METHYLENE DIETHYLCARBAMODITHIOATE], the IC50 was over 1000 µM.
Compound S=C(SSC(=S)N(C1CCCCC1)C1CCCCC1)N(C1CCCCC1)C1CCCCC1 has an IC50 of 1.39 µM.
In the case of S=C(SSC(=S)N1CCN(c2ccccc2)CC1)N1CCN(c2ccccc2)CC1, the IC50 is reported as 0.41 µM.
For CN1CCN(C(=S)SSC(=S)N2CCN(C)CC2)CC1, the IC50 was 0.17 µM.
Compound S=C(SSC(=S)N1CCCCC1)N1CCCCC1 [BIS(PIPERIDINYLTHIOCARBONYL)DISULFIDE] has an IC50 of 0.51 µM.
Work on S=C(SSC(=S)N1CCOCC1)N1CCOCC1 yielded an IC50 of 0.21 µM.
In the case of CCN(CC)C(=S)CSC(=S)N(CC)CC [(DIETHYLTHIOCARBAMOYL)METHYLENE DIETHYLCARBAMODITHIOATE], the IC50 is reported as 36.4 µM.
With CC1CCN(C(=S)SSC(=S)N2CCC(C)CC2)CC1 the IC50 was 0.58 µM.
CCN(CC)C(=S)SCSC(=S)N(CC)CC showed an IC50 of 45.9 µM.
In the case of CN1CCN(C(=S)SCSC(=S)N2CCNCC2)CC1, the IC50 is reported as 67.3 µM.
For S=C(SSC(=S)N1CCN(Cc2ccccc2)CC1)N1CCN(Cc2ccccc2)CC1, the IC50 was 22.5 µM.

Each compound was assayed against T1, D-3-phosphoglycerate dehydrogenase (assay: Inhibition of human PHGDH using 3-PG as substrate by fluorescence based analysis).
O=C(c1ccc(Cl)cc1)N1CCOCC1 [(4-CHLOROPHENYL)(MORPHOLINO)METHANONE] showed an IC50 of 10.4 µM.

Each compound was assayed against T1, D-3-phosphoglycerate dehydrogenase (assay: Inhibition of human PHGDH using 3-PG as substrate incubated for 60 mins by fluorescence based analysis).
With O=C(c1cc(-c2ccccc2)n[nH]1)N1CCc2cc(S(=O)(=O)Nc3ncccn3)ccc21 the IC50 was over 100 µM.
For Cc1cc(C)nc(NS(=O)(=O)c2ccc(NC(=O)c3cc(-c4ccccc4O)n[nH]3)cc2)n1, the IC50 was under 50 µM.

The compounds below were run against T1, D-3-phosphoglycerate dehydrogenase (assay: Inhibition of human PHGDH expressed in Escherichia coli BL21 using 3-PG as substrate incubated for 30 mins by fluorescence based analysis).
C[C@H]1C(=O)OC([C@@H](O)[C@](C)(O)C2[C@@H](O)CC3C4C[C@H]5O[C@]56[C@@H](O)C=CC(=O)[C@]6(C)C4CC[C@@]32C)[C@@H]1C (some centres not stated) gave an IC50 of 1.66 µM.
With COC(=O)[C@H](C)N1Cc2c(O)c(O)c(O)c(C)c2C1=O the IC50 was 9.76 µM.

Each compound was assayed against T1, D-3-phosphoglycerate dehydrogenase (assay: Binding affinity to human PHGDH expressed in Escherichia coli BL21 incubated for 30 mins by MST assay).
With COC(=O)[C@H](C)N1Cc2c(O)c(O)c(O)c(C)c2C1=O the Kd was 15.2 µM.

These compounds were tested against T1, D-3-phosphoglycerate dehydrogenase (assay: Binding affinity to PHGDH (unknown origin) by isothermal titration calorimetry).
In the case of NC(=O)c1cc2ccccc2s1, the Kd is reported as 470 µM.

The compounds below were run against T1, D-3-phosphoglycerate dehydrogenase (assay: Binding affinity to human PHGDH (3 to 314 residues) expressed in Escherichia coli Rosetta (DE3) by isothermal titration calorimetry).
Compound COc1ccc(NC(C)=O)cc1Cl has a Kd of 1300 µM.
In the case of Cc1cncc(Cc2cccc(CO)c2)n1, the Kd is reported as 16600 µM.

From ChEMBL document CHEMBL5230140, “A retrospective overview of PHGDH and its inhibitors for regulating cancer metabolism” (Eur J Med Chem, 2021)
